≈ marks a conversion by molar mass, not a printed value. Each block holds one compound with its values, some of them ahead of it.
Legend:
H influenzae = test: MIC, CLSI agar dilution method; type: cell-based; details: 18 hrs at 37° C.
Experimental: (§1) The antibacterial activity of compounds of the invention was evaluated by determining the minimal inhibitory concentration (MIC) according to standard CLSI agar dilution method. The media used for preculture and main culture were Tryptic Soya broth (Difco) and Mueller Hinton medium (Difco), respectively. The Mueller Hinton agar was supplemented with 5% sheep blood for streptococci and pneumococci, and with haemoglobin as well as NAD (nicotinamide adenine dinucleotide) for Haemophilus influenzae, respectively. Overnight cultures were diluted with buffered saline (pH 7.2) to the final cell density of 5×10^6-10^7 CFU/ml, and each bacterial suspension was applied with a replicator (Denley's multipoint inoculator, UK) onto a series of Mueller-Hinton agar plates containing antibacterial agents at various concentrations. Final inoculum was approximately 10^4 CFU/spot. The plates were incubated for 18 hrs at 37° C. The MIC was defined as the lowest concentration of an antibacterial agent that inhibits the development of visible microbial growth on agar.

[1] = tested on: S pneumoniae 3773, a high level ermb strain; test: MIC, CLSI agar dilution method; type: cell-based; details: S pneumoniae 3773, high level ermb strain, 18 hrs at 37° C.
Experimental: as §1

[2] = tested on: S pneumoniae ermb strains; test: MIC, CLSI agar dilution method; type: cell-based; details: 18 hrs at 37° C.
Experimental: as §1

S pneumoniae mef strains = test: MIC, CLSI agar dilution method; type: cell-based; details: 18 hrs at 37° C.
Experimental: as §1

[3] = tested on: S pneumoniae sensitive strains; test: MIC, CLSI agar dilution method; type: cell-based; details: 18 hrs at 37° C.
Experimental: as §1

[4] = tested on: S pyogene 3530, a high level ermb strain; test: MIC, CLSI agar dilution method; type: cell-based; details: S pyogene 3530, high level ermb strain, 18 hrs at 37° C.
Experimental: as §1

S pneumoniae 3773 = test: In vivo oral efficacy (ED50) in mice intraperitoneally infected with S pneumoniae 3773; details: Mus musculus, two doses at 1 hour and 4 hour after intraperitoneal infection with S pneumoniae 3773, survival on day seven, read-out: ED50 (Dose protecting 50% of infected mice)
Experimental: The in vivo efficacy of compounds of the invention was evaluated by determining ED50 by oral administration of compounds to group of mice (6 mice/dose group) intraperitoneally infected with (5×10^7-1×10^8 CFU/mouse) S pneumoniae 3773. Two doses of compounds of the invention and Telithromycin were administered at 1 hour and 4 hour after infection. On day seven, percentage of animals surviving in various dose groups were employed to determine ED50 (Dose protecting 50% of infected mice)

MIC (H influenzae): 4 to 8 µg/mL (≈ 4.93 to 9.85 µM) | MIC [1]: 4 µg/mL (≈ 4.93 µM) | MIC [2]: 0.007 to 0.5 µg/mL (≈ 0.00862 to 0.616 µM) | MIC (S pneumoniae mef strains): 0.015 to 1 µg/mL (≈ 0.0185 to 1.23 µM) | MIC [3]: 0.007 to 0.015 µg/mL (≈ 0.00862 to 0.0185 µM) | MIC [4]: 16 µg/mL (≈ 19.7 µM)
Structure (SMILES): CC[C@H]1OC(=O)[C@H](C)C(=O)[C@H](C)[C@@H](O[C@@H]2O[C@H](C)C[C@H](N(C)C)[C@H]2O)[C@](C)(OC)C[C@@H](C)C(=O)[C@H](C)[C@H]2N(CCCCn3cnc(-c4cccnc4)c3)C(=O)O[C@]12C [Telithromycin]
ED50 (S pneumoniae 3773): 75 to 100 mg/kg

melting point: 135 to 137 °C
Structure (SMILES): CC[C@@H]1OC(=O)[C@H](C)C(=O)[C@H](C)[C@@H](OC2O[C@H](C)C[C@H](N(C)C)[C@H]2O)[C@](C)(OC)C[C@@H](C)C(=O)[C@H](C)[C@H]2[C@H](/C(N)=N/O[C@@H](C)c3nnc(-c4ccccn4)s3)C(=O)O[C@@]21C (stereo partly drawn) [Example 33, (11S,21R)-3-decladinosyl-11,12-dideoxy-6-O-methyl-3-oxo-12,11-{oxycarbonyl-[E-N-[1-(5-pyridin-2-yl-1,3,4-thiadiazol-2-yl)-(S)-ethoxy]-carboxamidino]methylene}-erythromycin A]

melting point: 196 to 197 °C
Structure (SMILES): CC[C@@H]1OC(=O)[C@@](C)(F)C(=O)[C@H](C)[C@@H](OC2O[C@H](C)C[C@H](N(C)C)[C@H]2O)[C@](C)(OC)C[C@@H](C)C(=O)[C@H](C)[C@H]2[C@H](/C(N)=N/OCc3ncc(-c4ccon4)cn3)C(=O)O[C@@]21C (stereo partly drawn) [Example 3, (11S,21R)-3-decladinosyl-11,12-dideoxy-2-fluoro-6-O-methyl-3-oxo-12,11-{oxycarbonyl-[E-N-[(5-isoxazol-3-yl-pyrimidin-2-yl)-methoxy]-carboxamidino]methylene}-erythromycin A]

melting point: 192 to 194 °C
Structure (SMILES): CC[C@@H]1OC(=O)[C@@](C)(F)C(=O)[C@H](C)[C@@H](OC2O[C@H](C)C[C@H](N(C)C)[C@H]2O)[C@](C)(OC)C[C@@H](C)C(=O)[C@H](C)[C@H]2[C@H](/C(N)=N/OCc3nnc(-c4ncccn4)s3)C(=O)O[C@@]21C (stereo partly drawn) [Example 7, (11S,21R)-3-decladinosyl-11,12-dideoxy-2-fluoro-6-O-methyl-3-oxo-12,11-{oxycarbonyl-[E-N-[(5-pyrimidin-2-yl-1,3,4-thiadiazol-2-yl)-methoxy]-carboxamidino]methylene}-erythromycin A]
